# Where two headings read alike, the source gives them in different places.
# Legend:
# G-CSF = assay: Multiplex bead array cytokine level in tumor tissue; format: in vivo, mice; conditions: RvE1 pre-treatment, mean ± SEM
# Method: (§1) Inflammation is driven by soluble factors that are produced by tumor cells and by the cells recruited to the tumor microenvironment. […] Cytokine levels were measured using a multiplex bead array assay kit for Luminex purchased from Millipore to measure the following cytokines: G-CSF, IL-10, IL-6, IL-8, IL-12, TNF □, as per the manufacturer's instructions using a Luminex 100 instrument. Appropriate dilutions of the samples in assay diluent were made as required. Each sample was assayed in duplicate and cytokine standards supplied by the manufacturer were used to calculate the concentrations in the samples. Cytokine levels are expressed in pg/ml.
# TNF-α = assay: as above; format: in vivo, mice; conditions: RvE1 pre-treatment, mean ± SEM
# Method: as §1
# IL-8 = assay: as above; format: in vivo, mice; conditions: RvE1 pre-treatment, mean ± SEM
# Method: as §1
# lung cancer [1] = assay: RvE1 and cisplatin in xenograft model of lung cancer
# IL-12 = assay: Multiplex bead array cytokine level in tumor tissue; format: in vivo; conditions: Wt mice, RvE1 pre-treatment, mean ± SEM
# Method: as §1
# IL-6 = assay: as above; format: in vivo; conditions: Wt mice, RvE1 pre-treatment, mean ± SEM
# Method: as §1
# COX-2 [2] = assay: COX-2 expression, RvE1 and cisplatin xenograft model; format: in vivo, mice
# VEGF = VEGF expression in tumor tissue (immunohistochemistry and PCR); format: in vivo, mice; conditions: p<0.001
# Method: (§2) In order to identify tumor cell proliferation and angiogenesis markers, the expression of Ki67 as a marker of proliferation and CD31, CD34 and VEGF as markers of vascularization was analyzed by immunohistochemistry. Briefly, 5 μm thick sections were de-paraffinized and rehydrated with serial alcohol solutions. Antigen retrieval was performed by incubating the sections in 10 mM sodium citrate (pH 6.0) in a microwave oven first for 5 min at 720 W, then 3 min at 450 W and finally 2 min at 180 W. Endogenous peroxidase activity was quenched by incubating the slides with 3% H2O2 (in methanol) for 20 minutes at 4° C. followed by blocking with 2% BSA for 30 minutes at room temperature. The sections were then incubated with antibodies to Ki67, CD31, CD34 and VEGF (1:100 dilution) overnight at 4° C. in a humidified chamber. Sections were incubated with ABC reagent VACTASTAIN Elite ABC Standard Kit (PK-6100). The immune reactions were visualized using 3,3-diaminobenzidine tetra hydrochloride (DAB). DAB-stained slides were counterstained lightly with hematoxylin. Slides were dehydrated and mounted with Permount for analysis. Images were acquired and analyzed using the Nikon Eclipse 80i microscope (Japan) and Northern Eclipse imaging Elements-D (NIS-D) software. The results are expressed as percent of total positive cells.
# In order to analyze the impact of RvE1 on inflammation and angiogenesis, the expression of NF-κB, COX-2, VEGF, Ang-1 and Ang-2 was examined by quantitative real-time PCR. […] Quantification of RNA was determined using NanoDrop 1000 (Thermo Fisher Scientific, Wilmington, DE). […] For quantitative RT-PCR analysis, oligonucleotides for NF-κB, COX-2, VEGF, Ang-1, Ang-2 and GAPDH were chosen from predesigned assays. […] The fluorescence of the double-stranded products was monitored in real time. The cDNA was amplified and quantified using Sequence Detection System (SDS) 7000 (Applied Biosystems). The 2^(ΔΔCt) (Ct value of target gene minus Ct value of housekeeping gene) method was used to calculate relative quantity fold-change. […]
# COX2 = COX2 expression, orthotopic model of lung cancer; format: in vivo
# CD34 = assay: Immunohistochemistry of tumor tissue, vascularization marker CD34; format: in vivo, mice
# Method: as §2
# [3] = system: LA-P0297 lung cancer cells; assay: Histological analysis of tumor tissue (hematoxylin and eosin); format: in vivo, mice
# From the text: To examine the microscopic alterations in the tumor tissue, tissues were fixed in 10% formalin, paraffin embedded, sectioned (5 μm) and stained with hematoxylin and eosin. Images were photographed and enlarged for evaluation.
# Ang2 = assay: Quantitative mRNA expression in tumor tissue (qPCR); format: in vivo; conditions: both Wt and Tg mice vs controls and vehicle groups, p<0.001
# Method: (§3) In order to analyze the impact of RvE1 on inflammation and angiogenesis, the expression of NF-κB, COX-2, VEGF, Ang-1 and Ang-2 was examined by quantitative real-time PCR. Total cellular RNA was extracted from tumor tissue (stored in RNAlater solution) using TriZol reagent. Quantification of RNA was determined using NanoDrop 1000 (Thermo Fisher Scientific, Wilmington, DE). RNA samples were stored at −80° C. until use. The first-strand cDNA was synthesized with High Capacity cDNA Archive kit (Applied Biosystems, Foster City, CA, USA) according to the manufacturer's instructions. For quantitative RT-PCR analysis, oligonucleotides for NF-κB, COX-2, VEGF, Ang-1, Ang-2 and GAPDH were chosen from predesigned assays. Thermal cycling included initial steps at 50° C. for 2 min and at 95° C. for 10 min, followed by 40 cycles at 95° C. for 15 s and at 60° C. for 1 min. The fluorescence of the double-stranded products was monitored in real time. The cDNA was amplified and quantified using Sequence Detection System (SDS) 7000 (Applied Biosystems). The 2^(ΔΔCt) (Ct value of target gene minus Ct value of housekeeping gene) method was used to calculate relative quantity fold-change. GAPDH was used as the housekeeping gene. The data is from 3 independent experiments performed in triplicate.
# lung cancer [4] = assay: Orthotopic model of lung cancer, RvE1; format: in vivo
# CD31 = assay: Immunohistochemistry of tumor tissue, vascularization marker CD31; format: in vivo; conditions: both Wt and Tg mice vs respective controls and vehicle groups
# Method: as §2
# Ki67 = assay: Immunohistochemistry of tumor tissue, proliferation marker; format: in vivo, mice
# Method: as §2
# [5] = system: LA-P0297 lung cancer cells; format: in vivo, mice; conditions: for No tumor / Tumor developed (number of mice): total 6; for No tumor / Tumor developed (number of mice) / Necrosis: RvE1 pre-treatment; for Necrosis: cell wraps: Started on 18th day
# From the text: ERV1-transgenic mice (Tg) were engineered as previously described (Gao et al., 2013). In brief, the full-length of hCD11b promoter cDNA was cloned upstream of the full-length chemR23 cDNA (GenBank accession: www.ncbi.nlm.nih.gov/nuccore/NM_004072). For genotyping, genomic DNA was collected from ear punch biopsies of mice and screened by PCR with primers directed to mouse ERV1 (forward primer 5′-CTCGGTCTCCTAGGCAAC-3′) and human ERV1 (forward primer 5′-GTCTTCCTCCCAATCCAT-3′). The mouse and human ERV1 amplicons share the same reverse primer (5′-TAGAAAGCCAGGACCCAG-3′). FVB Wild type female mice (Wt) were purchased from Jackson Laboratories (Bar Harbor, ME). All animals were housed under specific pathogen-free conditions, received standard laboratory chow diet and water ad libitum. All animal experiments were approved by the Institutional Animal Care and Use Committee (IACUC) at the Forsyth Institute and were performed in conformance to the standards of the Public Health Service Policy on Humane Care and Use of Laboratory Animals. The animals were acclimatized before being used in the experimental study.
# After one week of acclimatization, all animals received an injection of 1×10^6 LA-P0297 lung cancer cells subcutaneous in the right flank. Both Wt (n=18) and Tg (n=18) animals were randomly divided into 3 experimental groups: un-treated controls; 100 ng of RvE1 diluted in PBS injected intraperitoneal daily for the first 6 days and weekly thereafter for 3 weeks; vehicle, which was 5% ethanol diluted in PBS. RvE1 was stored in 100% ethanol and diluted in PBS immediately before use. RvE1 and vehicle were administered 30 minutes before the injection of cancer cells. Animals were checked routinely for body weight and growth of tumors on the skin. Tumor volume was measured using a Vernier caliper (Mitutoyo, Japan) and calculated using the following formula: V=½(L×W^2) where L=length and W=width. After 28 days, the animals were euthanized by CO2 asphyxia; tumor tissues were collected and stored for histological and molecular analyses.
# Ang1 = assay: Quantitative mRNA expression in tumor tissue (qPCR); format: in vivo, mice; conditions: p<0.001
# Method: as §3
# COX-2 [6] = assay: as above; format: in vivo, mice; conditions: p<0.001
# Method: as §3
# NF-κB [7] = assay: as above; format: in vivo, mice; conditions: p<0.001
# Method: as §3
# lung cancer [8] = conditions: mouse, in vivo
# NF-κB [9] = assay: NF-κB expression, RvE1 and cisplatin xenograft model; format: in vivo, mice
# IL-1α = assay: Multiplex bead array cytokine level in tumor tissue; format: in vivo; conditions: Wt mice, RvE1 pre-treatment, mean ± SEM
# COX-2 [10] = assay: COX-2 expression, LXA4 xenograft model of lung cancer; format: in vivo; conditions: LXA4-treatment group
# lung cancer [11] = assay: LXA4 and xenograft model of lung cancer; format: in vivo
# [12] = RvE1 added to cisplatin, WT and TG animals
# [13] = Tg mice vs control and vehicle animals
# [14] = Wt mice vs control and vehicle animals
# [15] = cisplatin, WT and TG mice, p<0.001
smiles,measurement,setting,value
"CC[C@@H](O)/C=C/C=C\C[C@@H](O)/C=C/C=C/C=C\[C@@H](O)CCCC(=O)O [RvE1, Resolvin E1]",G-CSF level in tumor tissue,G-CSF; Tg mice,1156.31 pg/mL
same,G-CSF level in tumor tissue,G-CSF; Wt mice,1624.28 ± 170.8 pg/mL
same,TNF-α level in tumor tissue,TNF-α; Tg mice,10.06 ± 2.1 ^¥¥ pg/ml
same,TNF-α level in tumor tissue,TNF-α; Wt mice,13.23 pg/mL
same,IL-8 level in tumor tissue,IL-8; Tg mice,692.61 pg/mL
same,IL-8 level in tumor tissue,IL-8; Wt mice,2629.41 ± 263.3 pg/mL
same,Tumor volume compared to cisplatin alone,"lung cancer [1]; RvE1 added to cisplatin, both WT and TG animals, p<0.001",significantly and further reduced
same,Tumor volume compared to the non-treated and WT groups,lung cancer [1]; TG animals treated with cisplatin and additional RvE1,markedly reduced tumor volume
same,IL-12 level in tumor tissue,IL-12,46.73 ± 4.7 pg/mL
same,IL-6 level in tumor tissue,IL-6,52.06 pg/mL
same,Suppression (reduction) of COX-2 expression compared to cisplatin alone,COX-2 [2]; [12],increased the suppression
same,VEGF expression reduction,VEGF; [13],7 fold
same,VEGF expression reduction,VEGF; [14],5 fold
same,"Decrease of VEGF expression, Tg mice compared to Wt mice treated with RvE1",VEGF,more significant
same,Reduction of the expression of COX2,COX2; both groups (WT and TG),6 fold
same,Reduction of expression (printed in the COX2 sentence),COX2; only in the TG animals,6-7 fold
same,CD34 positive cells,CD34; both Wt and Tg mice vs respective controls and vehicle groups,significantly (p<0.001) reduced
same,"Reduction of CD34 expression in tumor tissues, Tg animals vs Wt animals",CD34; p<0.01,significantly more
same,Microscopic alterations of tumor tissue,[3]; RvE1-treated Wt and Tg animals,extensive necrosis
same,"Necrosis, RvE1 treated Tg mice compared to Wt mice",[3]; Tg vs Wt,more prominent
same,Ang2 expression,Ang2,significantly decreased
same,Histological findings in lungs,lung cancer [4]; RvE1 vs control groups,"decreased tumor density, vascularization, and inflammatory infiltration with increased necrosis"
same,Number of nodules in the lung over 2 weeks,lung cancer [4]; TG+RvE1 (TG control 8-10),3-5 nodules
same,Survival over 2 weeks,lung cancer [4]; TG+RvE1 (TG control 25%),80%
same,Number of nodules in the lung over 2 weeks,lung cancer [4]; WT+RvE1 (WT control 8-10),4-6 nodules
same,Survival over 2 weeks,lung cancer [4]; WT+RvE1 (WT control 25%),40%
same,CD31 positive cells,CD31,significantly (p<0.001) reduced
same,"Reduction in the expression of Ki67, RvE1 treated Tg mice compared to Wt mice treated with RvE1",Ki67; Tg vs Wt,significantly (p<0.01) higher
same,Ki67-positive cells,Ki67; both Wt and Tg groups vs vehicle and control groups,significant (p<0.001) reduction
same,"Necrosis seen on the surface of tumors, from day",[5]; RvE1 treated groups,19 days
same,No tumor,[5]; Tg mice,3
same,Tumor developed (number of mice),[5]; Tg mice,3
same,Necrosis,[5]; Tg mice,Started
same,No tumor,[5]; Wt mice,Weak
same,Tumor developed (number of mice),[5]; Wt mice,4
same,Necrosis,[5]; Wt mice,Started
same,Tumor size,"[5]; both Wt and Tg animals vs vehicle and control groups, p<0.001",reduced significantly
same,Body weight,"[5]; mouse, in vivo",no significant difference
same,"Signs of toxicity (behavioral changes; eating, drinking habits and movement)","[5]; mouse, in vivo",None of the animals exhibited any signs of toxicity
same,Tumor appearance,[5]; vs tumors of animals not treated with RvE1 (solid and rigid),very soft and pulpous
same,Ang1 expression,Ang1; both Wt and Tg mice vs controls and vehicle groups,significantly decreased
same,"Decrease in Ang1 expression, Tg mice compared to Wt animals",Ang1,more significant
same,COX-2 mRNA decrease,COX-2 [6]; Tg mice vs controls and vehicle groups,8 fold
same,COX-2 mRNA decrease,COX-2 [6]; Wt mice vs controls and vehicle groups,6 fold
same,NF-κB expression reduction,NF-κB [7]; [13],7.6 fold
same,NF-κB expression reduction,NF-κB [7]; [14],4 fold
same,"Signs of toxicity (behavioral changes; eating, drinking habits and movement)",lung cancer [8],None of the animals exhibited any signs of toxicity
same,Suppression (reduction) of NF-κB expression compared to cisplatin alone,NF-κB [9]; [12],increased the suppression
same,IL-1α level in tumor tissue,IL-1α,177.94 ± 15.7 pg/mL
N.N.[Cl][Pt][Cl] [cisplatin],Tumor volume,lung cancer [1]; cisplatin,reduced tumor volume
same,Decrease of tumor growth compared to control groups,"lung cancer [1]; cisplatin, both WT and TG groups",more than 10 fold
same,Body weight,lung cancer [1]; cisplatin-alone group,lost weight after the first 2 weeks
same,COX-2 expression,COX-2 [2]; [15],reduced
same,NF-κB expression,NF-κB [9]; [15],reduced
"CCCCC[C@H](O)/C=C/C=C\C=C\C=C\[C@@H](O)[C@@H](O)CCCC(=O)O [LXA4, lipoxin A4]",COX-2 expression,COX-2 [10],significantly decreased
same,"Necrosis, center of the tumor tissue","lung cancer [11]; LXA4-treated group vs WT-vehicle control, 4 weeks",highly necrotic
same,Inflammatory infiltration,lung cancer [11]; LXA4 group vs vehicle,no sign of inflammatory infiltration
same,Tumor volume,lung cancer [11]; LXA4 vs vehicle group over 4 weeks,reduced the tumor volume significantly
same,Body weight,"lung cancer [11]; LXA4 vs vehicle, 4 weeks",No change

# — patent publication US11903998B2, “Compositions and methods of treating cancer using lipid agonists and receptors thereof” (Forsyth Dental Infirmary for Children, priority 2016, dated 2024)
